Values after ≈ are worked out from the molar mass of the structure shown.
Assays:
[1] = tested on: Aeromonas hydrophila; assay: Antibacterial activity against Aeromonas hydrophila ATCC 95080; type: functional
[2] = Acid dissociation constant, pKa for OH group of the compound in DMSO-water mixture at 25 +/- 0.1 degC by potentiometric method; type: physicochemical
[3] = tested on: Bacillus spizizenii; assay: Antibacterial activity against Bacillus subtilis ATCC 6633; type: functional
[4] = tested on: Escherichia coli; assay: Antibacterial activity against Escherichia coli; type: functional
[5] = tested on: Staphylococcus aureus; assay: Antibacterial activity against Staphylococcus aureus ATCC 25925; type: functional
[6] = tested on: Candida parapsilosis; assay: Antifungal activity against Candida parapsilosis ATCC 22019 after 48 hrs by microdilution broth method; type: functional; settings: Lodderomyces parapsilosis, ATCC 22019, 48 h
[7] = Acid dissociation constant, pKa for NH group of the compound in DMSO-water mixture at 25 +/- 0.1 degC by potentiometric method; type: physicochemical
[8] = tested on: Acinetobacter baumannii; assay: Antibacterial activity against Acinetobacter baumannii ATCC 02026; type: functional
[9] = tested on: Candida tropicalis; assay: Antifungal activity against Candida tropicalis ATCC 750 after 48 hrs by microdilution broth method; type: functional; settings: ATCC 750, 48 h
[10] = tested on: Nakaseomyces glabratus; assay: Antifungal activity against Candida glabrata ATCC 90030 after 48 hrs by microdilution broth method; type: functional; settings: ATCC 90030, 48 h
[11] = tested on: Mycobacterium tuberculosis; assay: Antimycobacterial activity against Mycobacterium tuberculosis H37Rv after 7 days by REMA; type: functional; settings: 168 h
[12] = Acid dissociation constant, pKa for SH group of the compound in DMSO-water mixture at 25 +/- 0.1 degC by potentiometric method; type: physicochemical

SMILES | MIC [1] [µg/mL] | pKa [2] | MIC [3] [µg/mL] | MIC [4] [µg/mL] | MIC [5] [µg/mL] | MIC [6] [µg/mL] | pKa [7] | MIC [8] [µg/mL] | MIC [9] [µg/mL] | MIC [10] [µg/mL] | MIC [11] [µg/mL] | pKa [12]
COC(=O)[C@H]1C[C@@H](C(=O)OC)C(c2ccccc2)(c2ccccc2)N1c1nc(-c2ccccc2)c(C(=O)c2ccc(F)cc2)s1 | 125 (≈ 201 µM) | 9.69 | 250 (≈ 403 µM) | 125 (≈ 201 µM) | 125 (≈ 201 µM) | 62.5 (≈ 101 µM) | 2.63 | 250 (≈ 403 µM) | 62.5 (≈ 101 µM) | 62.5 (≈ 101 µM) | 15.6 (≈ 25.2 µM) | 6.09
COC(=O)[C@H]1[C@@H](C(=O)OC)C(c2ccccc2)(c2ccccc2)N(c2nc(-c3ccccc3)c(C(=O)c3ccc(OC)cc3)s2)[C@H]1C(=O)OC | 62.5 (≈ 90.5 µM) | 10.2 | 125 (≈ 181 µM) | 250 (≈ 362 µM) | 125 (≈ 181 µM) | 62.5 (≈ 90.5 µM) | 2.83 | 62.5 (≈ 90.5 µM) | 62.5 (≈ 90.5 µM) | 31.2 (≈ 45.2 µM) | 15.6 (≈ 22.6 µM) | 6.77
COC(=O)[C@H]1C[C@@H](C(=O)OC)C(c2ccccc2)(c2ccccc2)N1c1nc(-c2ccccc2)c(C(=O)c2ccc(C#N)cc2)s1 | 250 (≈ 398 µM) | 8.67 | 250 (≈ 398 µM) | 125 (≈ 199 µM) | 125 (≈ 199 µM) | 62.5 (≈ 99.6 µM) | 3.78 | 250 (≈ 398 µM) | 62.5 (≈ 99.6 µM) | 31.2 (≈ 49.8 µM) | 15.6 (≈ 24.9 µM) | 5.61
COC(=O)[C@H]1[C@@H](C(=O)OC)C(c2ccccc2)(c2ccccc2)N(c2nc(-c3ccccc3)c(C(=O)c3ccc(C#N)cc3)s2)[C@H]1C(=O)OC | 62.5 (≈ 91.1 µM) | 8.9 | 62.5 (≈ 91.1 µM) | 125 (≈ 182 µM) | 125 (≈ 182 µM) | 31.2 (≈ 45.6 µM) | 3.53 | 62.5 (≈ 91.1 µM) | 62.5 (≈ 91.1 µM) | 31.2 (≈ 45.6 µM) | 7.81 (≈ 11.4 µM) | 5.66
NNC(=O)c1ccncc1 [ISONIAZID] | – | – | – | – | – | – | – | – | – | – | 0.98 (≈ 7.15 µM) | –
CC1(C)S[C@@H]2[C@H](NC(=O)[C@H](N)c3ccccc3)C(=O)N2[C@H]1C(=O)O [AMPICILLIN] | 31.2 (≈ 89.4 µM) | – | 0.98 (≈ 2.8 µM) | 15.6 (≈ 44.7 µM) | 31.2 (≈ 89.4 µM) | – | – | 125 (≈ 358 µM) | – | – | – | –
COC(=O)[C@H]1C[C@@H](S(=O)(=O)c2ccccc2)C(c2ccccc2)(c2ccccc2)N1c1nc(-c2ccccc2)c(C(=O)c2ccc(F)cc2)s1 | 62.5 (≈ 88.9 µM) | 8.73 | 62.5 (≈ 88.9 µM) | 125 (≈ 178 µM) | 125 (≈ 178 µM) | 62.5 (≈ 88.9 µM) | 3.4 | 62.5 (≈ 88.9 µM) | 62.5 (≈ 88.9 µM) | 31.2 (≈ 44.5 µM) | 1.96 (≈ 2.79 µM) | 5.84
COC(=O)[C@H]1[C@@H](C(=O)OC)C(c2ccccc2)(c2ccccc2)N(c2nc(-c3ccccc3)c(C(=O)c3ccccc3)s2)[C@H]1C(=O)OC | 62.5 (≈ 94.6 µM) | 8.5 | 62.5 (≈ 94.6 µM) | 125 (≈ 189 µM) | 125 (≈ 189 µM) | 62.5 (≈ 94.6 µM) | 3.35 | 62.5 (≈ 94.6 µM) | 62.5 (≈ 94.6 µM) | 31.2 (≈ 47.3 µM) | 15.6 (≈ 23.6 µM) | 5.81
COC(=O)[C@H]1C[C@@H](C(=O)OC)C(c2ccccc2)(c2ccccc2)N1c1nc(-c2ccccc2)c(C(=O)c2ccccc2)s1 | 250 (≈ 415 µM) | 9.67 | 125 (≈ 207 µM) | 125 (≈ 207 µM) | 125 (≈ 207 µM) | 62.5 (≈ 104 µM) | 2.99 | 250 (≈ 415 µM) | 62.5 (≈ 104 µM) | 31.2 (≈ 51.8 µM) | 15.6 (≈ 25.9 µM) | 6.58
COC(=O)[C@H]1C[C@@H](S(=O)(=O)c2ccccc2)C(c2ccccc2)(c2ccccc2)N1c1nc(-c2ccccc2)c(C(=O)c2ccc(C#N)cc2)s1 | 62.5 (≈ 88 µM) | 8.83 | 62.5 (≈ 88 µM) | 125 (≈ 176 µM) | 125 (≈ 176 µM) | 62.5 (≈ 88 µM) | 3.56 | 62.5 (≈ 88 µM) | 62.5 (≈ 88 µM) | 31.2 (≈ 44 µM) | 3.91 (≈ 5.51 µM) | 5.78
COC(=O)[C@H]1C[C@@H](S(=O)(=O)c2ccccc2)C(c2ccccc2)(c2ccccc2)N1c1nc(-c2ccccc2)c(C(=O)c2ccccc2)s1 | 62.5 (≈ 91.3 µM) | 8.64 | 62.5 (≈ 91.3 µM) | 125 (≈ 183 µM) | 125 (≈ 183 µM) | 62.5 (≈ 91.3 µM) | 3.26 | 31.2 (≈ 45.6 µM) | 31.2 (≈ 45.6 µM) | 31.2 (≈ 45.6 µM) | 3.91 (≈ 5.71 µM) | 5.9
COC(=O)[C@H]1C[C@@H](S(=O)(=O)c2ccccc2)C(c2ccccc2)(c2ccccc2)N1c1nc(-c2ccccc2)c(C(=O)c2ccc(OC)cc2)s1 | 62.5 (≈ 87.4 µM) | 9.28 | 62.5 (≈ 87.4 µM) | 125 (≈ 175 µM) | 125 (≈ 175 µM) | 62.5 (≈ 87.4 µM) | 3.35 | 62.5 (≈ 87.4 µM) | 62.5 (≈ 87.4 µM) | 31.2 (≈ 43.7 µM) | 3.91 (≈ 5.47 µM) | 6.01
COC(=O)[C@H]1[C@@H](C(=O)OC)C(c2ccccc2)(c2ccccc2)N(c2nc(-c3ccccc3)c(C(=O)c3ccc(Br)cc3)s2)[C@H]1C(=O)OC | 62.5 (≈ 84.5 µM) | 9.23 | 62.5 (≈ 84.5 µM) | 125 (≈ 169 µM) | 125 (≈ 169 µM) | 125 (≈ 169 µM) | 3.27 | 62.5 (≈ 84.5 µM) | 125 (≈ 169 µM) | 31.2 (≈ 42.3 µM) | 3.91 (≈ 5.29 µM) | 6.02
COC(=O)[C@H]1C[C@@H](S(=O)(=O)c2ccccc2)C(c2ccccc2)(c2ccccc2)N1c1nc(-c2ccccc2)c(C(=O)c2ccc(Br)cc2)s1 | 62.5 (≈ 81.8 µM) | 9.53 | 62.5 (≈ 81.8 µM) | 125 (≈ 164 µM) | 125 (≈ 164 µM) | 62.5 (≈ 81.8 µM) | 2.97 | 31.2 (≈ 40.9 µM) | 62.5 (≈ 81.8 µM) | 31.2 (≈ 40.9 µM) | 0.98 (≈ 1.28 µM) | 5.99
COC(=O)[C@H]1C[C@@H](C(=O)OC)C(c2ccccc2)(c2ccccc2)N1c1nc(-c2ccccc2)c(C(=O)c2ccc(Br)cc2)s1 | 250 (≈ 367 µM) | 9.91 | 250 (≈ 367 µM) | 250 (≈ 367 µM) | 250 (≈ 367 µM) | 31.2 (≈ 45.8 µM) | 3.11 | 125 (≈ 183 µM) | 62.5 (≈ 91.7 µM) | 62.5 (≈ 91.7 µM) | 7.81 (≈ 11.5 µM) | 5.99
CC[C@@H](CO)NCCN[C@@H](CC)CO [ETHAMBUTOL] | – | – | – | – | – | – | – | – | – | – | 1.96 (≈ 9.59 µM) | –
OC(Cn1cncn1)(Cn1cncn1)c1ccc(F)cc1F [FLUCONAZOLE] | – | – | – | – | – | 3.9 (≈ 12.7 µM) | – | – | 15.6 (≈ 51 µM) | 3.9 (≈ 12.7 µM) | – | –
COC(=O)[C@H]1[C@@H](C(=O)OC)C(c2ccccc2)(c2ccccc2)N(c2nc(-c3ccccc3)c(C(=O)c3ccc(F)cc3)s2)[C@H]1C(=O)OC | 62.5 (≈ 92.1 µM) | 10.2 | 62.5 (≈ 92.1 µM) | 125 (≈ 184 µM) | 125 (≈ 184 µM) | 62.5 (≈ 92.1 µM) | 2.73 | 62.5 (≈ 92.1 µM) | 62.5 (≈ 92.1 µM) | 31.2 (≈ 46 µM) | 15.6 (≈ 23 µM) | 6.37
COC(=O)[C@H]1C[C@@H](C(=O)OC)C(c2ccccc2)(c2ccccc2)N1c1nc(-c2ccccc2)c(C(=O)c2ccc(OC)cc2)s1 | 125 (≈ 198 µM) | 10 | 250 (≈ 395 µM) | 250 (≈ 395 µM) | 250 (≈ 395 µM) | 125 (≈ 198 µM) | 2.46 | 250 (≈ 395 µM) | 62.5 (≈ 98.8 µM) | 62.5 (≈ 98.8 µM) | 15.6 (≈ 24.7 µM) | 6.31

From ChEMBL document CHEMBL4184279, “Synthesis, antimicrobial activity and acid dissociation constants of methyl 5,5-diphenyl-1-(thiazol-2-yl)pyrrolidine-2-carboxylate derivatives” (Bioorg Med Chem Lett, 2018)
